This is an account of results in patent US20100009956A1, “NOVEL SUBSTITUTED PYRIMIDINES AS CYSTEINE PROTEASE INHIBITORS” (Glaxo Group Limited , a corporation, priority 2006, published 2010).

Where a name gives a salt, the structure may show the parent alone. Read-outs that look alike come from different tables or passages of the source. Bounds are passed on as bounds.

In general, IC50 refers to the concentration that gives 50% inhibition.

Assay type in all cases: biochemical
The target in test [1] is T1, Cathepsin K (Homo sapiens, UniProt P43235).
T1 sequence (P43235 115-329): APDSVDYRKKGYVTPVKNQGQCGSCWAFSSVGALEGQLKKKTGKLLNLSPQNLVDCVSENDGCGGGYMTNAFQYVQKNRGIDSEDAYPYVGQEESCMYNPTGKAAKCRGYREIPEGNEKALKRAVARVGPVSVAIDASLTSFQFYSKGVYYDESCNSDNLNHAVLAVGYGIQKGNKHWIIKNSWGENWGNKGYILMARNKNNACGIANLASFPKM
The experiment in a line: Cathepsin K enzymatic assay (assay 1). The conditions noted are these: human recombinant enzyme, Z-FR-AFC substrate, pH 5.5. The procedure:
(§1) Assay 1) Determination of Falcipain-2, Falcipain-3, Vivapain-2, Cathepsin K Cathepsin S, Cathepsin L, and Cathepsin B Proteolytic Catalytic Activity
(§2) Assays for Falcipain-2, Falcipain-3, and Vivapain-2 are carried out with parasitic recombinant enzymes. Cathepsins K, S, L, and B are carried out with human recombinant enzymes. Standard assay conditions for the determination of kinetic constants used a fluorogenic peptide substrate, typically H-D-VLR-AFC (Falcipain-2, Falcipain-3, Vivapain-2), Z-FR-AFC (Cathepsin K, L, B), or KQKLR-AMC (Cathepsin S) and are determined in 100 mM sodium acetate, pH 5.5, containing 10 mM DTT and 0.5 mM CHAPS (Falcipain-2, Falcipain-3, Vivapain-2), and 100 mM sodium acetate, pH 5.5, containing 5 mM L-cysteine, 1 mM CHAPS and 5 mM EDTA (Cathepsin K, L, B), or 50 mM MES, pH 6.5, containing 0.5 mM CHAPS, 10 mM L-CYS, 5 mM EDTA (Cathepsin S). Stock substrate solutions are prepared at 20 mM in DMSO. The activity assays contained 30 uM substrate (Falcipain-2, Falcipain-3, Vivapain-2), 20 uM substrate (Cathepsin K), 25 uM substrate (Cathepsin B), 5 uM substrate (Cathepsin L), and 30 uM substrate (Cathepsin S). All assays contained 1% DMSO. […] All assays are conducted at ambient temperature as end point assays being quenched after 60 minutes with the exception of Cathepsin S at 90 minutes, with 16.6 uM E-64 in 1% DMSO. Product formation (AFC or AMC) is determined from fluorescence (excitation at 405 nm; emission at 530 nm, AFC, or excitation at 360 nm; emission at 460 nm, AMC) monitored with a LJL Aquest (Molecular Devices) fluorescent plate reader. In the case of kinetic reads (used in mechanism of action studies), the reaction is not quenched but is read in the plate reader every 3 minutes for approximately 90 minutes. In addition, the mechanism of action studies for Falcipain-2 utilize Z-LR-AMC as the substrate. Product formation is determined from the fluorescence of AMC, measured with a LJL Acquest (Molecular Devices) fluorescent plate reader (excitation at 360 nm; emission at 460 nm).
(§3) Potential inhibitors are evaluated using the quenched read (endpoint) method. Assays are carried out in the presence of variable concentrations of test compound. Reactions are initiated by addition of enzyme and substrate to wells containing inhibitor stamped in 100% DMSO. For endpoint assays, the reaction is quenched with the addition of E64. Dose response data is fit to an IC50 curve with preset fitting tools according to equation 1:
(§4) y=a+(b−a)/(1+(10^x/10^c)^d) (1)
(§5) where y is the response at a particular inhibitor concentration x, a is the minimum response value, b is the maximum response value, c is the IC50, and d is the slope of the IC50 curve. Assuming the compound is a competitive inhibitor, the apparent KI can be calculated from IC50, as shown in equation 2: […]

For test [2], the target named is Falcipain-3 (Plasmodium falciparum, UniProt Q8IIL0). The test can be described thus: Falcipain-3 enzymatic assay (assay 1). As for the experimental part: as §1, §2, §3, §4, §5
The target of test [3] is Falcipain-2 (Plasmodium falciparum, UniProt Q8I6U4). The test can be described thus: Falcipain-2 enzymatic assay (assay 1). As for the experimental part: as §1, §2, §3, §4, §5
Falcipain-2, sequence (Q8I6U4 244-484): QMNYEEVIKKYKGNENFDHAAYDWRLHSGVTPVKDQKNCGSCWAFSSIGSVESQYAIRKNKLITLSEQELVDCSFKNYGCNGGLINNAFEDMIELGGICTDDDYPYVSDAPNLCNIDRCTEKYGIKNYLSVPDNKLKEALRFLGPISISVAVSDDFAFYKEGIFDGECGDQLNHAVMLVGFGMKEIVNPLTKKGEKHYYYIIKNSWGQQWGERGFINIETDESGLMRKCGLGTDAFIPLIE

Falcipain-3, sequence (Q8IIL0 243-492): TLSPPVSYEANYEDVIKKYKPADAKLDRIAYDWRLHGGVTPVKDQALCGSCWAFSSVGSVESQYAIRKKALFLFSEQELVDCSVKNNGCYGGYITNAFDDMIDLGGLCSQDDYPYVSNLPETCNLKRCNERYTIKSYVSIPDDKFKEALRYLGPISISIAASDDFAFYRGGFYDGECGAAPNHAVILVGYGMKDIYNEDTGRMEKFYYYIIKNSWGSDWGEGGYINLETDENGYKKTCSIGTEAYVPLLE

Turning to `CN1CCC(CN2CCN(Cc3ccc(C(=O)NN(c4nc(C#N)ncc4Cl)C4CCOCC4)cc3)CC2)CC1` [Example 35, N′-(5-Chloro-2-cyano-4-pyrimidinyl)-4-({4-[(1-methyl-4-piperidinyl)methyl]-1-piperazinyl}methyl)-N′-(tetrahydro-2H-pyran-4-yl)benzohydrazide trifluoroacetate], the 50% inhibitory concentration (IC50) in test [1] is less than 17 nM; in test [2], 15 to 150 nM; in test [3], 1 to 2.5 nM.

Consider `CN1CCN(C(=O)C2CCN(Cc3ccc(C(=O)NN(c4nc(C#N)ncc4Br)C4CCCCC4)cc3)CC2)CC1` [Example 22, N′-(5-bromo-2-cyano-4-pyrimidinyl)-N′-cyclohexyl-4-({4-[(4-methyl-1-piperazinyl)carbonyl]-1-piperidinyl}methyl)benzohydrazide trifluoroacetate], for which the figures for the concentration for half-maximal inhibition (IC50) in test [1], in test [2] and in test [3] were less than 1.5 nM, 2.5 to 15 nM and less than 1 nM, respectively.

In the case of `CN1CCCC(CN2CCN(Cc3cccc(C(=O)NN(c4nc(C#N)ncc4Br)C4CCCC4)c3)CC2)C1` (stereo not drawn) [Example 14, N′-(5-bromo-2-cyano-4-pyrimidinyl)-N′-cyclopentyl-3-({4-[(1-methyl-3-piperidinyl)methyl]-1-piperazinyl}methyl)benzohydrazide trifluoroacetate], the results for the concentration for half-maximal inhibition (IC50) in test [1], in test [2] and in test [3] were less than 1.5 nM, 2.5 to 15 nM and less than 1 nM, respectively.

Take `N#Cc1ncc(Br)c(N(NC(=O)c2ccc(CN3CC(N4CCCC4)C3)cc2)C2CCOCC2)n1` [Example 33, N′-(5-bromo-2-cyano-4-pyrimidinyl)-4-{[3-(1-pyrrolidinyl)-1-azetidinyl]methyl}-N′-(tetrahydro-2H-pyran-4-yl)benzohydrazide trifluoroacetate]: the results for the half-maximal inhibitory concentration (IC50) in test [1], in test [2] and in test [3] were less than 17 nM, 15 to 150 nM and less than 1 nM, respectively.

As to `CN1CCN(C2CCN(Cc3ccc(C(=O)NN(c4nc(C#N)ncc4Br)C4CCCC4)cc3)CC2)CC1` [Example 10, N′-(5-bromo-2-cyano-4-pyrimidinyl)-N′-cyclopentyl-4-{[4-(4-methyl-1-piperazinyl)-1-piperidinyl]methyl}benzohydrazide trifluoroacetate], the IC50 was less than 1.5 nM in test [1], 2.5 to 15 nM in test [2] and less than 1 nM in test [3].

As for `N#Cc1ncc(Br)c(N(NC(=O)c2ccc(CN3CCC(N4CCOCC4)CC3)cc2)C2CCCCC2)n1` [Example 18, N′-(5-bromo-2-cyano-4-pyrimidinyl)-N′-cyclohexyl-4-{([4-(4-morpholinyl)-1-piperidinyl]methyl}benzohydrazide trifluoroacetate], the results for the concentration for half-maximal inhibition (IC50) in test [1], in test [2] and in test [3] were less than 1.5 nM, 2.5 to 15 nM and less than 1 nM, respectively.

With `CN1CCCC(CN2CCN(Cc3ccc(C(=O)NN(c4nc(C#N)ncc4Br)C4CCCCC4)cc3)CC2)C1` (stereo not drawn) [Example 25, N′-(5-bromo-2-cyano-4-pyrimidinyl)-N′-cyclohexyl-4-({4-[(-methyl-3-piperidinyl)methyl]-1-piperazinyl}methyl)benzohydrazide trifluoroacetate], the IC50 in test [1] is less than 1.5 nM; in test [2] it was 2.5 to 15 nM; in test [3], less than 1 nM.

As to `CN1CCC(CN2CCN(Cc3ccc(C(=O)NN(c4nc(C#N)ncc4Br)C4CCOCC4)cc3)CC2)CC1` [Example 30, N′-(5—Bromo-2-cyano-4-pyrimidinyl)-4-({4-[(1-methyl-4-piperidinyl)methyl]-1-piperazinyl}methyl)-N′-(tetrahydro-2H-pyran-4-yl)benzohydrazide trifluoroacetate], the IC50 was less than 17 nM in test [1], 2.5 to 15 nM in test [2] and 1 to 2.5 nM in test [3].

With `C[C@@H]1CCC[C@H]1N(NC(=O)c1ccc(F)cc1)c1nc(C#N)ncc1Br` (racemic) [Example 43, N′-(5-bromo-2-cyano-4-pyrimidinyl)-4-fluoro-N′-[(1R,2R+1S,2S))-2-methylcyclopentyl]benzohydrazide trifluoroacetate], the IC50 in test [1] is less than 17 nM; in test [2], 2.5 to 15 nM; in test [3], less than 1 nM.

With `N#Cc1ncc(Br)c(N(NC(=O)c2cccc(CN3CCC(N4CCOCC4)CC3)c2)C2CCCCC2)n1` [Example 24, N′-(5-bromo-2-cyano-4-pyrimidinyl)-N′-cyclohexyl-3-{[4-(4-morpholinyl)-1-piperidinyl]methyl}benzohydrazide trifluoroacetate], the 50% inhibitory concentration (IC50) in test [1] is less than 1.5 nM; in test [2], 2.5 to 15 nM; in test [3], less than 1 nM.

`CN1CCC(CN2CCN(Cc3ccc(C(=O)NN(c4nc(C#N)ncc4Br)C4CCCC4)cc3)CC2)CC1` [Example 7, N′-(5-bromo-2-cyano-4-pyrimidinyl)-N′-cyclopentyl-4-({4-[(1-methyl-4-piperidinyl)methyl]-1-piperazinyl}methyl)benzohydrazide trifluoroacetate]: the figures for the concentration for half-maximal inhibition (IC50) in test [1], in test [2] and in test [3] were less than 1.5 nM, 2.5 to 15 nM and less than 1 nM, respectively.

On to `CN1CCN(C(=O)C2CCN(Cc3ccc(C(=O)NN(c4nc(C#N)ncc4Cl)C4CCOCC4)cc3)CC2)CC1` [Example 36, N′-(5-Chloro-2-cyano-4-pyrimidinyl)-4-({4-[(4-methyl-1-piperazinyl)carbonyl]-1-piperidinyl}methyl)-N′-(tetrahydro-2H-pyran-4-yl)benzohydrazide trifluoroacetate], for which the IC50 in test [1] is less than 17 nM; in test [2], 15 to 150 nM; in test [3] (parasitic recombinant enzyme, H-D-VLR-AFC substrate, pH 5.5, endpoint read, read-out: Falcipain-2 IC50) it was less than 1 nM.

For the compound `CN1CCN(C2CCN(Cc3cccc(C(=O)NN(c4nc(C#N)ncc4Br)C4CCCC4)c3)CC2)CC1` [Example 11, N′-(5-bromo-2-cyano-4-pyrimidinyl)-N′-cyclopentyl-3-{[4-(4-methyl-1-piperazinyl)-1-piperidinyl]methyl}benzohydrazide trifluoroacetate], the 50% inhibitory concentration (IC50) in test [1] was less than 1.5 nM; in test [2], 2.5 to 15 nM; in test [3], less than 1 nM.

With `CN1CCN(C(=O)C2CCN(Cc3cccc(C(=O)NN(c4nc(C#N)ncc4Br)C4CCCC4)c3)CC2)CC1` [Example 12, N′-(5-bromo-2-cyano-4-pyrimidinyl)-N′-cyclopentyl-3-({4-[(4-methyl-1-piperazinyl)carbonyl]-1-piperidinyl}methyl)benzohydrazide trifluoroacetate], the results for the IC50 in test [1], in test [2] and in test [3] were less than 1.5 nM, 2.5 to 15 nM and less than 1 nM, respectively.

Take `CN1CCN(C(=O)C2CCN(Cc3ccc(C(=O)NN(c4nc(C#N)ncc4Br)C4CCOCC4)cc3)CC2)CC1` [Example 32, N′-(5—Bromo-2-cyano-4-pyrimidinyl)-4-({4-[(4-methyl-1-piperazinyl)carbonyl]-1-piperidinyl}methyl)-N′-(tetrahydro-2H-pyran-4-yl)benzohydrazide trifluoroacetate]: the IC50 in test [1] was less than 17 nM; in test [2] it was 2.5 to 15 nM; in test [3], less than 1 nM.

Take `CN1CCN(C(=O)C2CCN(Cc3ccc(C(=O)NN(c4nc(C#N)ncc4Br)C4CCCC4)cc3)CC2)CC1` [Example 9, N′-(5-bromo-2-cyano-4-pyrimidinyl)-N′-cyclopentyl-4-({4-[(4-methyl-1-piperazinyl)carbonyl]-1-piperidinyl}methyl)benzohydrazide trifluoroacetate]: the IC50 is less than 1.5 nM in test [1], 2.5 to 15 nM in test [2] and less than 1 nM in test [3].

Turning to `CN1CCC(CN2CCN(Cc3ccc(C(=O)NN(c4nc(C#N)ncc4Br)C4CCCCC4)cc3)CC2)CC1` [Example 19, N′-(5-bromo-2-cyano-4-pyrimidinyl)-N′-cyclohexyl-4-({4-[(-methyl-4-piperidinyl)methyl]-1-piperazinyl}methyl)benzohydrazide trifluoroacetate], the values for the IC50 in test [1], in test [2] and in test [3] were less than 1.5 nM, 2.5 to 15 nM and less than 1 nM, respectively.
